Laboratory results: patent US20260250322A1, “NEW PEPTIDES AS SELECTIVE IL-23 RECEPTOR INHIBITORS” (SANOFI, priority 2023, published 2026)
Blank lines part the entries; values can stand above or below the compound they belong to. Bridge positions count the residues as written; N and C are the ends. Square brackets hold non-standard residues; d marks the D form. Peptide text beside a SMILES is read from it. Trp(1-Me) = Cn1cc(C[C@H](N)C(=O)O)c2ccccc21; dAla(4-thiazolyl) = N[C@H](Cc1cscn1)C(=O)O; 1Nal = N[C@@H](Cc1cccc2ccccc12)C(=O)O; 2Nal = N[C@@H](Cc1ccc2ccccc2c1)C(=O)O; Aib = CC(C)(N)C(=O)O

Assays:
[1] = Chemical stability (relative purity loss) of peptide compounds in buffer formulations; type: physicochemical
Method: Purity of a compound batch was determined through UHPLC/MS prior to chemical stability measurement using Method A.
For stability assessment, the target concentration was 300 μM pure compound. Therefore, solutions from solid samples were prepared in the following buffer systems with a concentration of ~300 µM compound based on the previously determined % purity. The solid samples were obtained by drying down aliquots of a freshly prepared acetonitrile stock solution using a THERMO SPEEDVAC vacuum centrifuge. The dry down time was 3 hours.
The following buffer systems were applied: • Solubility buffer system A) 100 mM phosphate buffer pH 7.4. • Solubility buffer system B) 100 mM phosphate buffer pH 6.5. • Solubility buffer system C) 100 mM HCl pH 1.2.
Prepared solutions were filtered through […] pore size and filled into sterilized glass containers under laminar flow conditions.
[…] After this time course, the samples were centrifuged for 15 min at 2500 RCF. Then 1.5 μl of the undiluted supernatant were analysed with UHPLC-UV.
The chemical stability was rated through the relative loss of purity calculated by the equation:
[(purity after 0 hours at 37° C.)(purity after 24 hours at 37° C.)]/(purity after 0 hours at 37° C.)]*100%.
The purity is calculated as [(peak area peptide)/(total peak area)]*100%.
Buffer composition: 100 mM HCl pH 1.2, 100 mM phosphate buffer pH 6.5, 100 mM phosphate buffer pH 7.4

[2] = test system: IL-23 induced STAT3 signaling; test: Inhibition of IL-23 induced STAT3 signaling in HEK-Blue IL-23 cells (SEAP reporter); type: cell-based; details: human IL-23 0.25 ng/ml, read-out: Inhibition of IL-23 induced pSTAT3 (IC50 nM)
Excerpt: HEK-Blue™ IL-23 cells (Invivogen) are designed for the detection of bioactive human (hIL-23) and murine IL-23 (mIL-23) by monitoring the activation of the STAT3 pathway. Binding of IL-23 to its receptor on the surface of HEK-Blue™ IL-23 cells triggers a signaling cascade leading to the activation of STAT3 and the subsequent production of secreted embryonic alkaline phosphatase (SEAP). This can be readily assessed using QUANTI-Blue™ Solution, a SEAP detection reagent.
HEK-Blue™ IL-23 cells were cultured as described by Invivogen.
On the first day of assay 10 μL of the HEK-Blue IL-23 cell suspension (final concentration: 10,000 cells/well) and 10 μl of serially diluted compound solutions were dispensed into a 384-well assay plate. After pre-incubation of the reaction mixtures at 37° C./5% CO2/95% humidity for 60 minutes, 10 μl of the humanIL-23 cytokine (final concentration: 0.25 ng/ml) was added to each well for the STAT3 signaling activation. The plate was incubated overnight at 37° C./5% CO2/95% humidity.
On the second day 20 μl per well of Quanti-Blue detection solution (prepared according to the manufacture instruction) was dispensed into a new 384-well plate and followed by the transfer of 5 μl supernatant of the overnight incubated cell/sample mixtures. After incubation of 45 min at room temperature signals were measured with PHERAstar (BMG) at OD 620-655 nm.
Dose response data were fitted with XLfit.

human IL-23R = molecular target: T1, human IL-23R (Homo sapiens, UniProt Q5VWK5); test: Human ELISA IL-23/IL-23R binding inhibition; details: human IL-23 coated, recombinant human IL-23R-Fc chimera
T1 sequence (Q5VWK5 24-355 limits assumed): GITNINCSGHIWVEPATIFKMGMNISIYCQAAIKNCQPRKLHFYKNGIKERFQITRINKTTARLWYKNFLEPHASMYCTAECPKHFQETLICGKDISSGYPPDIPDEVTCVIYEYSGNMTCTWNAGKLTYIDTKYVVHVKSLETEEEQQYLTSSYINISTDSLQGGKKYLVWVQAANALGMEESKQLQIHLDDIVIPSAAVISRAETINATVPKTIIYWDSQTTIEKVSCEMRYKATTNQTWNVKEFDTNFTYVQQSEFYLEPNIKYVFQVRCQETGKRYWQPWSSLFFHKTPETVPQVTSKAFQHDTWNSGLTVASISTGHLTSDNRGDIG
Method: Antagonism of peptide compounds for human interleukin-23 receptor inhibitors, was determined by an ELISA assay.
A 384-well plate was coated with 50 μl/well of human IL-23 at a final concentration of 1 μg/ml and incubated overnight at 4° C. The wells were washed 3 times with 80 μl wash buffer and blocked with 80 μl blocking buffer for 60 minutes at room temperature and washed again. 20 μl of serially diluted test peptides was added to each well and subsequently 20 μl of recombinant human IL-23R-Fc chimera at final concentration of 0.1 μg/ml. The plate was incubated for 60 minutes at room temperature. After the wells were washed, bound IL-23R-Fc was detected with goat anti-hu-lgG1-HRP antibody. Signals were visualized with QuantaBlu Fluorogenic Peroxidase Substrate.

[3] = pH 6.5 (100 mM phosphate buffer)
[4] = pH 7.4 (100 mM phosphate buffer)

Conc. [mg/ml] 0 h ([1]; pH 1.2 (100 mM HCl)): 1.4 mg/mL
Conc. [mg/ml] 24 h 37° C. ([1]; pH 1.2 (100 mM HCl)): 1.0 mg/mL
Mass Balance [%] 24 h 37° C. ([1]; pH 1.2 (100 mM HCl)): −2.3%
Relative Purity Loss [%] 24 h 37° C. ([1]; pH 1.2 (100 mM HCl)): 22.9%
Conc. [mg/ml] 0 h [1, 3]: 1.4 mg/mL
Conc. [mg/ml] 24 h 37° C. [1, 3]: 1.3 mg/mL
Mass Balance [%] 24 h 37° C. [1, 3]: −4.6%
Relative Purity Loss [%] 24 h 37° C. [1, 3]: 0.7%
Conc. [mg/ml] 0 h [1, 4]: 1.4 mg/mL
Conc. [mg/ml] 24 h 37° C. [1, 4]: 1.3 mg/mL
Mass Balance [%] 24 h 37° C. [1, 4]: −2.2%
Relative Purity Loss [%] 24 h 37° C. [1, 4]: 2.7%
IC50 [2]: 339 nM
Compound: CC(=O)N[C@@H]1CCCCNC(=O)C[C@@H](C(=O)N[C@@H](CC(N)=O)C(=O)N[C@@H](CC(N)=O)C(N)=O)NC(=O)C(C)(C)NC(=O)[C@H](Cc2ccc3ccccc3c2)NC(=O)[C@H](Cc2ccc(O)cc2)NC(=O)[C@H](CCCNC(=N)N)NC(=O)[C@H](CCC(N)=O)NC(=O)[C@H](Cc2c[nH]c3ccccc23)NC(=O)[C@H]([C@@H](C)O)NC(=O)[C@H](CC(N)=O)NC1=O [compound 4] (Ac-[dK]NTWQRY[2Nal][Aib]DNN-NH2; lactam 1-10)

IC50 (human IL-23R): 15.9 nM
IC50 [2]: 10000 nM
Compound: COc1ccc(C[C@@H]2NC(=O)[C@H](C(C)C)NC(=O)[C@H](CCC(N)=O)NC(=O)[C@H](Cc3c[nH]c4ccccc34)NC(=O)[C@H]([C@@H](C)O)NC(=O)[C@H](CC(N)=O)NC(=O)[C@H](NC(C)=O)CCCCNC(=O)C[C@@H](C(=O)N[C@@H](CC(N)=O)C(=O)N[C@@H](CC(N)=O)C(N)=O)NC(=O)C(C)(C)NC(=O)[C@H](Cc3cccc4ccccc34)NC2=O)cc1 [compound 20] (Ac-[dK]NTWQVY(Me)[1Nal][Aib]DNN-NH2; lactam 1-10)

IC50 (human IL-23R): 9.61 nM
IC50 [2]: 3830 nM
Compound: COc1ccc(C[C@@H]2NC(=O)[C@H](CCCNC(=N)N)NC(=O)[C@H](CCC(N)=O)NC(=O)[C@H](Cc3cn(C)c4ccccc34)NC(=O)[C@H]([C@@H](C)O)NC(=O)[C@H](CC(N)=O)NC(=O)[C@H](NC(C)=O)CCCCNC(=O)C[C@@H](C(=O)N[C@@H](CC(N)=O)C(=O)N[C@@H](CC(N)=O)C(N)=O)NC(=O)[C@@H](Cc3cscn3)NC(=O)[C@H](Cc3ccc4ccccc4c3)NC2=O)cc1 [compound 25] (Ac-[dK]NT[Trp(1-Me)]QRY(Me)[2Nal][dAla(4-thiazolyl)]DNN-NH2; lactam 1-10)

IC50 (human IL-23R): 3.6 nM
IC50 [2]: 1440 nM
Compound: COc1ccc(C[C@@H]2NC(=O)[C@H](CCCNC(=N)N)NC(=O)[C@H](CCC(N)=O)NC(=O)[C@H](Cc3cn(C)c4ccccc34)NC(=O)[C@H]([C@@H](C)O)NC(=O)[C@H](CC(N)=O)NC(=O)[C@H](NC(C)=O)CCCCNC(=O)C[C@@H](C(=O)N[C@@H](CC(N)=O)C(=O)N[C@@H](CC(N)=O)C(N)=O)NC(=O)[C@H](CCCCNC(C)=O)NC(=O)[C@H](Cc3ccc4ccccc4c3)NC2=O)cc1 [compound 10] (Ac-[dK]NT[Trp(1-Me)]QRY(Me)[2Nal]K(Ac)DNN-NH2; lactam 1-10)

IC50 (human IL-23R): 14.9 nM
IC50 [2]: 6590 nM
Compound: COc1ccc(C[C@@H]2NC(=O)[C@H](CCCNC(=N)N)NC(=O)[C@H](CCC(N)=O)NC(=O)[C@H](Cc3c[nH]c4ccccc34)NC(=O)[C@H]([C@@H](C)O)NC(=O)[C@H](CC(N)=O)NC(=O)[C@H](NC(C)=O)CC(=O)NCCCC[C@@H](C(=O)N[C@@H](CC(N)=O)C(=O)N[C@@H](CC(N)=O)C(N)=O)NC(=O)C(C)(C)NC(=O)[C@H](Cc3ccc4ccccc4c3)NC2=O)cc1 [compound 12] (Ac-[dD]NTWQRY(Me)[2Nal][Aib]KNN-NH2; lactam 1-10)
